Experimental data taken from PubChem BioAssay (NCI).
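Values below derive from 48-hour exposures of cells grown in 96-well plates, with endpoints linearly interpolated between the two concentrations bracketing the appropriate inhibition level. GI50 is the concentration that inhibits growth by half. TGI: total growth inhibition.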

Assays:
Assay in all cases: DTP human tumour cell line panel, 48 h
UACC-62 melanoma = system: UACC-62 melanoma
UACC-257 melanoma = system: UACC-257 melanoma
NCI/ADR-RES ovarian = system: NCI/ADR-RES ovarian
SR leukemia = system: SR leukemia
SK-MEL-2 melanoma = system: SK-MEL-2 melanoma
U251 CNS = system: U251 CNS
786-0 renal = system: 786-0 renal
K-562 leukemia = system: K-562 leukemia
NCI-H522 lung = system: NCI-H522 lung
HS 578T breast = system: HS 578T breast
SK-OV-3 ovarian = system: SK-OV-3 ovarian
MDA-MB-435 = system: MDA-MB-435
LOX IMVI melanoma = system: LOX IMVI melanoma
SNB-75 CNS = system: SNB-75 CNS
HCC-2998 colon = system: HCC-2998 colon
SF-268 CNS = system: SF-268 CNS
NCI-H23 lung = system: NCI-H23 lung
SK-MEL-28 melanoma = system: SK-MEL-28 melanoma
PC-3 prostate = system: PC-3 prostate
SK-MEL-5 melanoma = system: SK-MEL-5 melanoma
OVCAR-5 ovarian = system: OVCAR-5 ovarian
NCI-H226 lung = system: NCI-H226 lung
CCRF-CEM leukemia = system: CCRF-CEM leukemia
T-47D breast = system: T-47D breast
A498 renal = system: A498 renal
SW-620 colon = system: SW-620 colon
SN12C renal = system: SN12C renal
OVCAR-3 ovarian = system: OVCAR-3 ovarian
HCT-15 colon = system: HCT-15 colon
MALME-3M melanoma = system: MALME-3M melanoma
HOP-92 NSCLC = system: HOP-92 NSCLC
HCT-116 colon = system: HCT-116 colon
HL-60(TB) leukemia = system: HL-60(TB) leukemia
SNB-19 CNS = system: SNB-19 CNS
TK-10 renal = system: TK-10 renal
BT-549 breast = system: BT-549 breast
HOP-62 NSCLC = system: HOP-62 NSCLC
SF-295 CNS = system: SF-295 CNS
A549 NSCLC = system: A549 NSCLC
ACHN renal = system: ACHN renal
UO-31 renal = system: UO-31 renal
MDA-MB-231 breast = system: MDA-MB-231 breast
KM12 colon = system: KM12 colon
HT29 colon = system: HT29 colon
RXF 393 renal = system: RXF 393 renal
IGROV1 ovarian = system: IGROV1 ovarian
MOLT-4 leukemia = system: MOLT-4 leukemia
RPMI-8226 leukemia = system: RPMI-8226 leukemia
CAKI-1 renal = system: CAKI-1 renal
MCF7 breast = system: MCF7 breast
OVCAR-8 ovarian = system: OVCAR-8 ovarian
NCI-H460 lung = system: NCI-H460 lung
SF-539 CNS = system: SF-539 CNS
COLO 205 colon = system: COLO 205 colon
DU-145 prostate = system: DU-145 prostate
EKVX NSCLC = system: EKVX NSCLC
OVCAR-4 ovarian = system: OVCAR-4 ovarian

## C#CCN(C)CCCOc1ccc(NCc2ccc(C(=O)NO)cc2)cc1Cl
UACC-62 melanoma
  GI50: 1.61 µM
  TGI: 5.27 µM
UACC-257 melanoma
  GI50: 1.42 µM
  TGI: 31.1 µM
NCI/ADR-RES ovarian
  GI50: 0.738 µM
  TGI: > 100 µM
SR leukemia
  GI50: 0.724 µM
  TGI: > 100 µM
SK-MEL-2 melanoma
  GI50: 2.77 µM
  TGI: 8.66 µM
U251 CNS
  GI50: 2.16 µM
  TGI: 10 µM
786-0 renal
  GI50: 3.18 µM
  TGI: 14.3 µM
K-562 leukemia
  GI50: 2.16 µM
  TGI: > 100 µM
NCI-H522 lung
  GI50: 1.07 µM
  TGI: 6.51 µM
HS 578T breast
  GI50: 1.85 µM
  TGI: 8.63 µM
SK-OV-3 ovarian
  GI50: 2.01 µM
  TGI: 10.8 µM
MDA-MB-435
  GI50: 2.59 µM
  TGI: 12.4 µM
LOX IMVI melanoma
  GI50: 1.76 µM
  TGI: 3.46 µM
SNB-75 CNS
  GI50: 2.28 µM
  TGI: 16.6 µM
HCC-2998 colon
  GI50: 2.66 µM
  TGI: 12.3 µM
SF-268 CNS
  GI50: 2.72 µM
  TGI: 22.9 µM
NCI-H23 lung
  GI50: 2.18 µM
  TGI: 5.83 µM
SK-MEL-28 melanoma
  GI50: 2.57 µM
  TGI: 11.5 µM
PC-3 prostate
  GI50: 1.94 µM
  TGI: 22.8 µM
SK-MEL-5 melanoma
  GI50: 1.51 µM
  TGI: 3.41 µM
OVCAR-5 ovarian
  GI50: 2.38 µM
  TGI: 18.4 µM
NCI-H226 lung
  GI50: 2.45 µM
  TGI: 16.9 µM
CCRF-CEM leukemia
  GI50: 0.632 µM
  TGI: > 100 µM
T-47D breast
  GI50: 1.85 µM
  TGI: 18.7 µM
A498 renal
  GI50: 1.11 µM
  TGI: 2.75 µM
SW-620 colon
  GI50: 2.18 µM
  TGI: 10.6 µM
SN12C renal
  GI50: 2.69 µM
  TGI: 17.4 µM
OVCAR-3 ovarian
  GI50: 2.06 µM
  TGI: 18.2 µM
HCT-15 colon
  GI50: 0.674 µM
  TGI: 19.4 µM
MALME-3M melanoma
  GI50: 1.11 µM
  TGI: 6.9 µM
HOP-92 NSCLC
  GI50: 1.37 µM
  TGI: 5.92 µM
HCT-116 colon
  GI50: 1.43 µM
  TGI: 10.9 µM
HL-60(TB) leukemia
  GI50: 1.37 µM
  TGI: 44.4 µM
SNB-19 CNS
  GI50: 3.08 µM
  TGI: 16.8 µM
TK-10 renal
  GI50: 1.91 µM
  TGI: 10.1 µM
BT-549 breast
  GI50: 2.76 µM
  TGI: 37.3 µM
HOP-62 NSCLC
  GI50: 2.8 µM
  TGI: 16.3 µM
SF-295 CNS
  GI50: 1.84 µM
  TGI: 3.8 µM
A549 NSCLC
  GI50: 2.71 µM
  TGI: 15.3 µM
ACHN renal
  GI50: 2.62 µM
  TGI: 10.5 µM
UO-31 renal
  GI50: 0.5 µM
  TGI: 2.78 µM
MDA-MB-231 breast
  GI50: 2.1 µM
  TGI: 13.6 µM
KM12 colon
  GI50: 2.67 µM
  TGI: 12.6 µM
HT29 colon
  GI50: 2.96 µM
  TGI: 20.5 µM
RXF 393 renal
  GI50: 1.22 µM
  TGI: 3.2 µM
IGROV1 ovarian
  GI50: 1.41 µM
  TGI: 4.47 µM
MOLT-4 leukemia
  GI50: 1.46 µM
  TGI: > 100 µM
RPMI-8226 leukemia
  GI50: 1.56 µM
  TGI: 12.3 µM
CAKI-1 renal
  GI50: 2.33 µM
  TGI: 11.7 µM
MCF7 breast
  GI50: 2.83 µM
  TGI: 21 µM
OVCAR-8 ovarian
  GI50: 1.4 µM
  TGI: > 100 µM
NCI-H460 lung
  GI50: 2.08 µM
  TGI: 14.6 µM
SF-539 CNS
  GI50: 2.05 µM
  TGI: 10.3 µM
COLO 205 colon
  GI50: 2.38 µM
  TGI: 6.92 µM
DU-145 prostate
  GI50: 2.19 µM
  TGI: 14.8 µM
EKVX NSCLC
  GI50: 3.6 µM
  TGI: 22.5 µM
OVCAR-4 ovarian
  GI50: 3.4 µM
  TGI: > 100 µM
